The values below come from patent US9226916B2, “Pyrrolidine derivatives” (HOFFMANN-LA ROCHE INC., priority 2009, dated 2016).

As usually defined, the Ki is the dissociation constant of the complex between target and ligand, obtained from inhibition or displacement.

For the first assay, the target named is T1, recombinant human NK3 receptor (Homo sapiens, UniProt P29371).
T1 construct: expressed in transfected cells; host or cells: HEK293 cells, transient expression; membranes
T1 sequence (P29371 1-465): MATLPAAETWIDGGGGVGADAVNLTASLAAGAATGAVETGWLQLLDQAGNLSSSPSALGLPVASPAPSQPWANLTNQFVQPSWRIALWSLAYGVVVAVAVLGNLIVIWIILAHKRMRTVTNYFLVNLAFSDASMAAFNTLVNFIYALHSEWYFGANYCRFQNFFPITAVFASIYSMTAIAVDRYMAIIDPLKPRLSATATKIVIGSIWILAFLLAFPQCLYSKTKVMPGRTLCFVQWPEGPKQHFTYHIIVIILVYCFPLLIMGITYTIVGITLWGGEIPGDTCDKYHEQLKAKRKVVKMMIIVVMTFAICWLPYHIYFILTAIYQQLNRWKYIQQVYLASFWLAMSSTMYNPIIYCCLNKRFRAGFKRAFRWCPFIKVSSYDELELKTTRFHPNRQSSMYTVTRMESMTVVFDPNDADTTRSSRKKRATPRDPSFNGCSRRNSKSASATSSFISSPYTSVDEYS
The assay is described as follows: [3H]SR142801 competition binding assay.
Details: not given
For the molecule `CC(=O)c1ccc(N2CCC(C(=O)N3C[C@@H](N(C)C(=O)Oc4ccc(F)cc4)[C@H](c4ccc(Cl)c(F)c4)C3)CC2)nc1` [Example 314, [(3S,4R)-1-(5′-Acetyl-3,4,5,6-tetrahydro-2H-[1,2′]bipyridinyl-4-carbonyl)-4-(4-chloro-3-fluoro-phenyl)-pyrrolidin-3-yl]-methyl-carbamic acid 4-fluoro-phenyl ester], the Ki is 0.6 nM.

As for `CN(C(=O)Oc1ccc(F)cc1)[C@H]1CN(C(=O)C2CCN(c3ccc(C#N)cn3)CC2)C[C@@H]1c1ccc(F)cc1` [Example 132, [(3R,4S)-1-(5′-Cyano-3,4,5,6-tetrahydro-2H-[1,2′]bipyridinyl-4-carbonyl)-4-(4-fluoro-phenyl)-pyrrolidin-3-yl]-methyl-carbamic acid 4-fluoro-phenyl ester], the Ki came to 55.6 nM.

With `COCC(=O)N1CCC(C(=O)N2C[C@H](c3ccc(Cl)c(Cl)c3)[C@@H](N(C)C(=O)Oc3ccc(F)cc3)C2)CC1` (racemic) [Example 75, rac-{(3R,4S)-4-(3,4-Dichloro-phenyl)-1-[1-(2-methoxy-acetyl)-piperidine-4-carbonyl]-pyrrolidin-3-yl}-methyl-carbamic acid 4-fluoro-phenyl ester], the Ki is 0.6 nM.

`CN(C(=O)Oc1ccc(F)cc1)[C@@H]1CN(C(=O)C2CCC(F)(F)CC2)C[C@H]1c1ccc(Cl)cc1` [Example 117, [(3S,4R)-4-(4-Chloro-phenyl)-1-(4,4-difluoro-cyclohexanecarbonyl)-pyrrolidin-3-yl]-methyl-carbamic acid 4-fluoro-phenyl ester]: the Ki stood at 17.4 nM.

With `CN(C(=O)Oc1ccccc1F)[C@@H]1CN(C(=O)C2CCN(c3ccc(C#N)cn3)CC2)C[C@H]1c1ccc(Cl)cc1` [Example 212, [(3S,4R)-4-(4-Chloro-phenyl)-1-(5′-cyano-3,4,5,6-tetrahydro-2H-[1,2′]bipyridinyl-4-carbonyl)-pyrrolidin-3-yl]-methyl-carbamic acid 2-fluoro-phenyl ester], the inhibition constant Ki came to 1.4 nM.

In the case of `CN(C(=O)Oc1ccc(F)cc1)[C@@H]1CN(C(=O)C2CCN(c3ccc(C(F)(F)F)cn3)CC2)C[C@H]1c1ccc(F)c(Cl)c1` [Example 317, [(3S,4R)-4-(3-Chloro-4-fluoro-phenyl)-1-(5′-trifluoromethyl-3,4,5,6-tetrahydro-2H-[1,2′]bipyridinyl-4-carbonyl)-pyrrolidin-3-yl]-methyl-carbamic acid 4-fluoro-phenyl ester], the Ki was 1.6 nM.

Consider `CN(C(=O)Oc1ccc(F)cc1)[C@H]1CN(C(=O)[C@H]2CC[C@](C)(O)CC2)C[C@@H]1c1ccc(Cl)c(Cl)c1` (racemic) [Example 52, rac-[(3R,4S)-4-(3,4-Dichloro-phenyl)-1-(trans-4-hydroxy-4-methyl-cyclohexanecarbonyl)-pyrrolidin-3-yl]-methyl-carbamic acid 4-fluoro-phenyl ester], for which the Ki stood at 8.1 nM.

With `CC1CC1COC(=O)N(C)[C@H]1CN(C(=O)C2CCN(C(=O)C3(C)CC3)CC2)C[C@@H]1c1ccc(Cl)c(Cl)c1` (mixture of isomers) [Example 92, rac-{(3R,4S)-4-(3,4-Dichloro-phenyl)-1-[1-(1-methyl-cyclopropanecarbonyl)-piperidine-4-carbonyl]-pyrrolidin-3-yl}-methyl-carbamic acid 2-methyl-cyclopropylmethyl ester], the inhibition constant (Ki) amounted to 2.3 nM.

As for `COC1CC(C(=O)N2C[C@@H](N(C)C(=O)Oc3ccc(F)cc3)[C@H](c3ccc(Cl)cc3)C2)C1` (stereo partly drawn) [Example 149, [(3S,4R)-4-(4-Chloro-phenyl)-1-(3-methoxy-cyclobutanecarbonyl)-pyrrolidin-3-yl]-methyl-carbamic acid 4-fluoro-phenyl ester], the inhibitory constant (Ki) worked out at 90.8 nM.

`CN(C(=O)O[C@H]1CC[C@H](C(F)(F)F)CC1)[C@@H]1CN(C(=O)C2CCN(C3CCOCC3)CC2)CC1c1ccc(Cl)c(Cl)c1` (stereo in doubt) [Example 123, {(3S,4R)-4-(3,4-Dichloro-phenyl)-1-[1-(tetrahydro-pyran-4-yl)-piperidine-4-carbonyl]-pyrrolidin-3-yl}-methyl-carbamic acid 4-trifluoromethyl-cyclohexyl ester]: the Ki amounted to 2.8 nM.

Regarding `CN(C(=O)Oc1ccc(F)cc1)[C@@H]1CN(C(=O)C2CCN(C3CCS(=O)(=O)C3)CC2)C[C@H]1c1ccc(Cl)cc1` (stereo partly drawn) [Example 115, {(3S,4R)-4-(4-Chloro-phenyl)-1-[1-(1,1-dioxo-tetrahydro-1λ^6-thiophen-3-yl)-piperidine-4-carbonyl]-pyrrolidin-3-yl}-methyl-carbamic acid 4-fluoro-phenyl ester], the Ki was determined as 1.3 nM.

Turning to `COCC1(C(=O)N2CCC(C(=O)N3C[C@@H](N(C)C(=O)Oc4ccc(F)cc4)[C@H](c4ccc(Cl)c(Cl)c4)C3)CC2)CC1` [Example 277, {(3S,4R)-4-(3,4-Dichloro-phenyl)-1-[1-(1-methoxymethyl-cyclopropanecarbonyl)-piperidine-4-carbonyl]-pyrrolidin-3-yl}-methyl-carbamic acid 4-fluoro-phenyl ester], the inhibition constant (Ki) stood at 0.5 nM.

In the case of `CCCCOC(=O)N(C)[C@H]1CN(C(=O)C2CCN(C(=O)C3(C)CC3)CC2)C[C@@H]1c1ccc(Cl)cc1` (racemic) [Example 27, rac-{(3R,4S)-4-(4-Chloro-phenyl)-1-[1-(1-methyl-cyclopropanecarbonyl)-piperidine-4-carbonyl]-pyrrolidin-3-yl}-methyl-carbamic acid butyl ester], the inhibitory constant (Ki) came out at 30.7 nM.

With `CN(C(=O)Oc1ccc(F)cc1)[C@@H]1CN(C(=O)C2CCN(C(=O)[C@@H]3CC(=O)N3)CC2)C[C@H]1c1ccc(Cl)cc1` [Example 319, {(3S,4R)-4-(4-Chloro-phenyl)-1-[1-((S)-4-oxo-azetidine-2-carbonyl)-piperidine-4-carbonyl]-pyrrolidin-3-yl}-methyl-carbamic acid 4-fluoro-phenyl ester], the Ki was determined as 10.6 nM.

With `CN(C(=O)OCCCC(F)(F)F)[C@H]1CN(C(=O)C2CCN(c3ccc(C#N)cn3)CC2)C[C@@H]1c1ccc(Cl)cc1` [Example 128, [(3R,4S)-4-(4-Chloro-phenyl)-1-(5′-cyano-3,4,5,6-tetrahydro-2H-[1,2′]bipyridinyl-4-carbonyl)-pyrrolidin-3-yl]-methyl-carbamic acid 4,4,4-trifluoro-butyl ester], the inhibition constant (Ki) came out at 68 nM.

In the case of `CN(C(=O)OCC1CCC(F)(F)C1)[C@H]1CN(C(=O)C2CCN(C(=O)C3(C)CC3)CC2)C[C@@H]1c1ccc(Cl)c(Cl)c1` (mixture of isomers) [Example 111, rac-{(3R,4S)-4-(3,4-Dichloro-phenyl)-1-[1-(1-methyl-cyclopropanecarbonyl)-piperidine-4-carbonyl]-pyrrolidin-3-yl}-methyl-carbamic acid 3,3-difluoro-cyclopentylmethyl ester], the Ki stood at 4.4 nM.

Take `CN(C(=O)Oc1ccc(F)cc1)[C@@H]1CN(C(=O)C2CCN(C(=O)C3(C(F)(F)F)CCC3)CC2)C[C@H]1c1ccc(Cl)c(Cl)c1` [Example 270, {(3S,4R)-4-(3,4-Dichloro-phenyl)-1-[1-(1-trifluoromethyl-cyclobutanecarbonyl)-piperidine-4-carbonyl]-pyrrolidin-3-yl}-methyl-carbamic acid 4-fluoro-phenyl ester]: the Ki worked out at 0.6 nM.

Staying with this assay, now noted: hNK-3 receptor affinity; membranes from HEK293 cells transiently expressing recombinant human NK3 receptor; [3H]SR142801; Cheng-Prussoff; read-out: Data Ki.
As for `CN(C(=O)OCCCC(F)(F)F)[C@@H]1CN(C(=O)C2CCN(C(=O)C3(C)CC3)CC2)C[C@H]1c1ccc(Cl)c(Cl)c1` [Example 82, {(3S,4R)-4-(3,4-Dichloro-phenyl)-1-[1-(1-methyl-cyclopropanecarbonyl)-piperidine-4-carbonyl]-pyrrolidin-3-yl}-methyl-carbamic acid 4,4,4-trifluoro-butyl ester], the Ki came out at 1.4 nM.

On to `CN(C(=O)OC1CCCCC1)[C@@H]1CN(C(=O)C2CCN(C(=O)C3(C)CC3)CC2)C[C@H]1c1ccc(Cl)cc1` [Example 152, {(3S,4R)-4-(4-Chloro-phenyl)-1-[1-(1-methyl-cyclopropanecarbonyl)-piperidine-4-carbonyl]-pyrrolidin-3-yl}-methyl-carbamic acid cyclohexyl ester], for which the Ki came to 14.7 nM.

With `CN(C(=O)OCCC(F)(F)F)[C@@H]1CN(C(=O)C2CCN(c3ccc(C#N)cn3)CC2)C[C@H]1c1ccc(Cl)cc1` [Example 144, [(3S,4R)-4-(4-Chloro-phenyl)-1-(5′-cyano-3,4,5,6-tetrahydro-2H-[1,2′]bipyridinyl-4-carbonyl)-pyrrolidin-3-yl]-methyl-carbamic acid 3,3,3-trifluoro-propyl ester], the inhibitory constant (Ki) was 21.1 nM.

Regarding `CN(C(=O)OCC1CCOCC1)[C@@H]1CN(C(=O)C2CCN(c3ccc(C#N)cn3)CC2)C[C@H]1c1ccc(Cl)cc1` [Example 231, [(3S,4R)-4-(4-Chloro-phenyl)-1-(5′-cyano-3,4,5,6-tetrahydro-2H-[1,2′]bipyridinyl-4-carbonyl)-pyrrolidin-3-yl]-methyl-carbamic acid tetrahydro-pyran-4-ylmethyl ester], the Ki was found to be 5.7 nM.

With `CN(C(=O)OCCCC(F)(F)F)[C@H]1CN(C(=O)C2CCN(C(=O)C3(C)CC3)CC2)C[C@@H]1c1ccc(Cl)cc1` [Example 100, {(3R,4S)-4-(4-Chloro-phenyl)-1-[1-(1-methyl-cyclopropanecarbonyl)-piperidine-4-carbonyl]-pyrrolidin-3-yl}-methyl-carbamic acid 4,4,4-trifluoro-butyl ester], the inhibition constant Ki turned out to be 12.2 nM.
